What was measured:
Format in all cases: in vivo, Balb/c mice
[1] = tested on: BLG-stimulated lymphocytes; assay: Prostaglandin E2 measurement (EIA) in culture media of lymphocytes from treated mice; conditions: mice fed whey proteins 3 mg/g on day 0; drug daily day -3 to day 4; 5 days after tolerization; whey vs non-tolerized control mice, drugs vs whey proteins fed mice
Protocol: (§1) To start the experiment the mice were forced fed and/or injected i.p. with butyrate (which promotes COX-2 activity), ibuprofen (which inhibits COX activity) or saline (control) daily from day −3 to day 4. On day 0, the mice were fed by gastric feeding whey proteins (3 mg/g of body weight) or same volume of saline water. Gavage products were dissolved in 0.3 ml of saline water. At day 4 of each experiment, all mice were immunized by intraperitoneal injection of 0.08 mg of BLG as well as 0.08 mg of OVA in 0.04 ml sterile saline mixed with 0.16 ml 2% Al(OH)3 (Superfos Biosecotr A/S, Denmark). At day 4 or at day 26, blood samples were obtained from cardiac aortic punction under 3% Isoflurane anaesthesia (Abbott SA). Immediately after death, obtained by cervical dislocation, spleens were removed and pooled according to group of treatment in 20 ml chilled RPMI supplemented with 5% FCS. […] (^3H)Tdr (Amersham, Zurich) was added for the final 6 hours of culture and the plates were harvested and analyzed by scintillation counting (TopCount, Canberra Packard, Zurich). […] Stimulation indices were calculated as the ratio of blank-subtracted test and control values at 2.5 mg BLG/mL and 50 μg PHA/mL. PGE2 levels in the culture media, from lymphocytes cultured for 6 hrs or 12 hrs, were determined by using an enzyme immunoassay (EIA) kit (Cayman Chemical, ). […]

anti-BLG IgE = assay: Measurement of specific anti-BLG IgE antibody in serum by ELISA; conditions: 26 days post-tolerization; whey vs non-tolerized mice (p<0.05), drugs vs whey proteins fed mice
Protocol: To start the experiment the mice were forced fed and/or injected i.p. with butyrate (which promotes COX-2 activity), ibuprofen (which inhibits COX activity) or saline (control) daily from day −3 to day 4. On day 0, the mice were fed by gastric feeding whey proteins (3 mg/g of body weight) or same volume of saline water. Gavage products were dissolved in 0.3 ml of saline water. At day 4 of each experiment, all mice were immunized by intraperitoneal injection of 0.08 mg of BLG as well as 0.08 mg of OVA in 0.04 ml sterile saline mixed with 0.16 ml 2% Al(OH)3 (Superfos Biosecotr A/S, Denmark). […] (^3H)Tdr (Amersham, Zurich) was added for the final 6 hours of culture and the plates were harvested and analyzed by scintillation counting (TopCount, Canberra Packard, Zurich). […] Stimulation indices were calculated as the ratio of blank-subtracted test and control values at 2.5 mg BLG/mL and 50 μg PHA/mL. […] Optical densities were measured at 492 nm, after 15 mn of incubation at room temperature, using a Dynatech MR500 ELISA reader (Dynatech, Embrach-Embraport, Switzerland. Pooled samples from twenty non immunized female mice were used as negative controls in each plate. The cut-off dilutions were determined by calculating the dilution of the samples which gave twice the absorbance of the negative controls. Titers were expressed as the log10 of the reciprocal of the cut-off dilution.

spleen cells = assay: Specific proliferation assay ((3H)Tdr incorporation) of spleen cells from treated mice; conditions: 4 days post-tolerization; index below 0.5 indicates tolerized mice; drugs compared with whey proteins fed mice
Protocol: as §1, with “FCS. Spleen cell solutions were homogenized through a cellular sieve (Falcon) and purified from red cells using Histopaque density centrifugation (Sigma) at 390×g for 20 min.” for “FCS.”, “PHA/mL.” for “PHA/mL. PGE2 levels in the culture media, from lymphocytes cultured for 6 hrs or 12 hrs, were determined by using an enzyme immunoassay (EIA) kit (Cayman Chemical, ).”

[2] = tested on: BLG-stimulated lymphocytes; assay: Cytokine ELISA (IFN-γ) in supernatants of BLG-stimulated spleen cells from treated mice; conditions: mice fed whey proteins 3 mg/g on day 0; drug daily day -3 to day 4; 5 days after tolerization; whey vs non-tolerized control mice, drugs vs whey proteins fed mice
Protocol: as §1, with “PHA/mL. […] IFN-γ” for “PHA/mL. PGE2”, “levels were measured using cytokine specific ELISA kit Endogen; which were performed according to” for “levels in”, “the manufacturers' instructions.” for “the culture media, from lymphocytes cultured for 6 hrs or 12 hrs, were determined by using an enzyme immunoassay (EIA) kit (Cayman Chemical, ).”

CC(C)Cc1ccc(C(C)C(=O)O)cc1 (stereo not shown) [ibuprofen]
not observed: PGE2 production by BLG-stimulated lymphocytes in culture [1] | humoral anti-BLG IgE titers (anti-BLG IgE) | proliferative response index (stimulation index) (spleen cells) | INF-γ production by BLG-stimulated lymphocytes in culture [2]
